# According to patent US20250189546A1, “METHODS FOR ANALYZING DRUG MOLECULES IN MAMMALIAN TISSUES” (The Scripps Research Institute, priority 2022, published 2025):
# Entries after “also recorded” stand apart in the source; their conditions may differ. Like-named read-outs stand apart in the source and are kept apart here.
# Assays:
# [1] = humans, cited from earlier work
# FAAH [2] = molecular target: T1, FAAH (Mus musculus, UniProt O08914); test: Gel-based CC-ABPP of whole brain lysates; format: in vivo; conditions: 20 mg/kg
# T1 construct: from tissue; host or cells: mouse brain (C57BL6J wild type)
# T1 sequence (O08914 1-579): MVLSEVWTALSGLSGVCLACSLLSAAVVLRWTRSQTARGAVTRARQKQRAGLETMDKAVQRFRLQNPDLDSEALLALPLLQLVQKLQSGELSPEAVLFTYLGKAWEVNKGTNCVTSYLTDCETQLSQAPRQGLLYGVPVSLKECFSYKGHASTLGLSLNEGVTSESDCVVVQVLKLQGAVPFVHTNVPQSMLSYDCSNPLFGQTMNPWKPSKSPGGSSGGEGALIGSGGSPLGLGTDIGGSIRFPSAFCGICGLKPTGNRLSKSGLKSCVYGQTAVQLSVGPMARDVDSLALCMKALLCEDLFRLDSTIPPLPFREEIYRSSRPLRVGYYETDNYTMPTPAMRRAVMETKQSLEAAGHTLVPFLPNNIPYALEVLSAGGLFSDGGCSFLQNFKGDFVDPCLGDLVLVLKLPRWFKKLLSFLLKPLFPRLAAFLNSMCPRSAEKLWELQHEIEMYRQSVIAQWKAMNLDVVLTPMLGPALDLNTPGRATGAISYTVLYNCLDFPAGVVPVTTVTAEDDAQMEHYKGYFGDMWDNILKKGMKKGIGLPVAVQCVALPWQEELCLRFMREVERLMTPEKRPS
# Experimental: (§1) For in gel ABPP analysis, after anesthetizing, mice were decapitated and target tissues were harvested and flash frozen in liquid N2 without perfusion or fixation. Each mouse hemisphere and liver were washed with ice cold PBS on ice (2×1 mL) to remove excessive blood. Tissues were homogenized in 1 mL PBS and sonicated for 10 min in ice cold water. Tissues were centrifuged (1000 g, 10 min, 4° C.) and supernatant was then centrifuged at high speed (100,000 g, 45 min, 4° C.). Supernatant was discarded and remaining pellets were gently washed with ice cold PBS (2×0.5 mL). Pellets were resuspended by gentle pipetting and protein concentrations were quantified by the Bio-Rad DC Protein Assay Kit. Proteomes were then diluted to […] for immediate use or aliquoted and stored at −80° C.
# (§2) In gel click chemistry ABPP assay: Click chemistry labeling of alkyne inhibitors was performed as previously reported (Niphakis et al., ACS Chem Neurosci 3, 418-426, 2012). Click reaction buffer was prepared by mixing CuSO4 (50 mM in H2O, 1.0 μL/reaction), TBTA (1.7 mM in 1:4 DMSO/t-BuOH, 3.0 μL/reaction), freshly prepared TCEP (50 mM in H2O, 1.0 μL/reaction) and 5-TAMRA azide (1.25 mM in DMSO, 1.0 μL/reaction). For every 50 μL tissue proteome ([…]), 6 μL click buffer was added. Reaction mixture was gently mixed and kept in a dark drawer for 1 hour at RT. […]
# MAGL = molecular target: T2, MAGL (Mus musculus, UniProt O35678); test: Gel-based CC-ABPP of whole brain lysates; format: in vivo; conditions: 1 mg/kg
# T2 construct: from tissue; host or cells: mouse brain hemisphere, 100,000 g membrane pellet
# T2 sequence (O35678 1-303): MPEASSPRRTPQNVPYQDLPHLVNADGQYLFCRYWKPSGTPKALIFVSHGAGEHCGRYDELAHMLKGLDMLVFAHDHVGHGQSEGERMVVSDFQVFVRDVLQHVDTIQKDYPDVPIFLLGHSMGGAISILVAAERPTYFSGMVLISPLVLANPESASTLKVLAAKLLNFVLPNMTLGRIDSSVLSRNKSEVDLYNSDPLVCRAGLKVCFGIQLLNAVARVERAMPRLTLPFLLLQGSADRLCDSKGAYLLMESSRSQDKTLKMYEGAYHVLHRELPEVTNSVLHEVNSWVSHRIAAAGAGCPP
# Experimental: as §1, §2
# [3] = test system: monoacylglycerol lipase (MAGL); test: CATCH subcellular compartment imaging in hippocampus with synapsin and MAP2 immunostaining; format: in vivo, mouse
# Excerpt: Because MAGL is restricted in localization to presynaptic axonal terminals, whereas FAAH is expressed in neuronal soma, the inventors sought to determine whether CATCH could detect on-and off-target MJN110-yne binding across subcellular compartments. The inventors focused on the well-characterized CA3 to CA1 projection in the hippocampus as it allowed us to observe both axon terminals and soma in the same field of view.
# (§3) CATCH labeling: For 100-micron sections labeling, the full CATCH reaction buffer contains: 5 μM AF647-picolyl azide, 150 μM CuSO4, 300 μM BTTP, 2.5 mM sodium ascorbate, and 10% DMSO in PBS. Tissue sections were incubated in click incubation buffer (without sodium ascorbate) overnight at RT. Tissues were then transferred to newly prepared incubation buffer and 100 mM freshly prepared sodium ascorbate was subsequently added to initiate the reaction. After 1 hour at RT in the dark with minor agitation, the reaction was quenched by addition of 4 mM EDTA in PBS (pH=8.0) and samples were washed 3×10 min with PBST. After removing click reaction cocktail, samples were stained by DAPI (1:3000 dilution in PBS from 10 μM stock) for 15 min at RT and would be ready for RI matching and imaging. They could also undergo further staining for cell type registration. For 500-micron sections, 300 μM CuSO4 and 600 μM BTTP were used for incubation and reaction. To achieve full labeling, tissues were incubated at 37° C. for 2 days, and underwent 4 rounds of 1 h click reaction at RT.
# Immunostaining: Samples were incubated with primary antibodies in PBST overnight at 4° C. unless otherwise noted. Samples were then washed with PBST, 3×30 min, RT and transferred to secondary antibodies diluted in PBST. Samples were incubated with secondary antibodies overnight, RT and washed with PBST 3×30 min. For antibody elution, imaged slides were dismounted, and tissues were washed by 8% PBS-SDS (pH=7.0) at 60° C. for 8 hours. Samples were then washed by PBST 3×10 min at RT to remove residual SDS and could undergo the next round of staining.
# Subcellular compartment intensity analysis: For MJN110-yne characterization, images were acquired at 5 μm from the tissue surface where the highest immunostaining signal can be observed. Different cellular compartments were identified by applying a threshold in immunostaining signal and mean drug labeling intensity was measured in the selected threshold region. Three random squares were drawn in nucleus in different cells and their average intensity was used as background. The recorded intensity value in soma or axonal terminal was then subtracted by the intensity in the nucleus for background adjustment. Data was then normalized to the average intensity of the control group as indicated in each figure legends.
# FAAH [4] = molecular target: T1, FAAH; test: Competitive CATCH: parental PF7845 followed by PF7845-yne probe; format: in vivo
# Excerpt: After establishing CATCH's specificity, scalability, compatibility, and resolution, finally, the inventors tested if CATCH can be used to quantitatively resolve dose-dependent target engagement after in vivo drug administration. […] In this competitive CATCH approach, animals are first treated with a dose range of the parental drugs, followed by a single high dose of the alkyne probes. The dose-dependent target engagement by the parental drug can be recorded based on the competitive blockade of signal in an anatomically specific manner (FIG. 8, A).
# The inventors treated mice with 0.01-1 mg/kg of parental PF7845 followed by 1 mg/kg PF7845-yne probe to readout the dose-dependent brain targets of PF7845 by competitive CATCH. […] Conversely, the inventors adopted a direct approach to visualize dose-dependent alkyne drug PK properties (FIG. 8, C).
# Sample collection: Inhibitors were administered to mice in a vehicle of 10% DMSO, 2% Tween-80 in saline for intraperitoneal (i.p.) injections. After drug injection at designated dose and time, mice were heavily anesthetized with isoflurane and then transcardially perfused with ice cold PBS followed by ice cold 4% PFA in PBS with sucrose. Mouse brains or other peripheral tissues were then dissected out and post fixed in 4% PFA overnight at 4° C. Tissues were washed with PBS, embedded in 2% agarose and sectioned as 100-micron or 500-micron tissue sections by vibratome (Leica VT1000S). Tissue sections were stored in PBS with 0.02% sodium azide at 4° C. for further processing.
# as §3
Compound,Clinical safety / toxicity [1],Clinical safety / toxicity ([1]; listed as BIA 10-2474),Off-target engagement in gel-based CC-ABPP (FAAH [2]),Target engagement in gel-based CC-ABPP (MAGL),"Subcellular localisation of CATCH signal, low dose ([3]; 1 mg/kg, hippocampus CA1)",Overall fluorescence intensity in hippocampus ([3]; 20 mg/kg vs 1 mg/kg),"Subcellular localisation of CATCH signal, high dose ([3]; 20 mg/kg, hippocampus)",Specificity of CATCH signals ([3]; pretreatment with parent MJN110 and MAGL−/− mice),"FAAH target binding by competitive CATCH (FAAH [4]; 0.01 mg/kg PF7845, then 1 mg/kg PF7845-yne)","FAAH inhibition by competitive CATCH, cortex vs hippocampus (FAAH [4]; 0.02 mg/kg PF7845, then PF7845-yne 1 mg/kg, 1 h, i.p.)","FAAH inhibition by competitive CATCH (FAAH [4]; 0.05 mg/kg PF7845, then 1 mg/kg PF7845-yne)",Duration of FAAH blockage to competitive probe binding (FAAH [4]; 24 hours after PF7845 administration),Effect of pre-treatment on PF7845-yne-generated CATCH signals across the brain (FAAH [4]; pharmacological blocking experiment),"Effect of pre-treatment on MJN110-yne binding in soma and axon terminals ([3]; PF7845 pre-treatment, then MJN110-yne, hippocampus)"
CN(C(=O)n1cnc(-c2ccc[n+]([O-])c2)c1)C1CCCCC1 [BIA-10-2474],Unanticipated toxicity,associated with clinical neurological toxicities,,,,,,,,,,,,
C#Cc1ccc(C(c2ccc(Cl)cc2)N2CCN(C(=O)ON3C(=O)CCC3=O)CC2)cc1 (stereo not drawn) [MJN110-yne],,,substantial off-target engagement of FAAH,selectively engaged MAGL,binding in presynaptic terminals; also recorded: restricted to synapsin positive axon terminals,overall higher fluorescence intensity,spread to the neuronal soma,confirmed the specificity,,,,,,
O=C(Nc1cccnn1)N1CCC(=Cc2cccc(Oc3ccc(C(F)(F)F)cn3)c2)CC1 [PF7845],considered a safe FAAH inhibitor,,,,,,,,no target binding was detected,Cortical PF7845-yne is fully blocked; also recorded: fully inhibited in the cortex but not in the hippocampus,full FAAH inhibition was achieved,sustained FAAH blockage to competitive probe binding,completely abolished,"significantly suppressed MJN110-yne binding in the soma, but not axon terminals"
